In patent US20220176084A1, “MEDICAL DEVICE WITH DRUG-ELUTING COATING ON MODIFIED DEVICE SURFACE” (Bard Peripheral Vascular, Inc., priority 2019, published 2022):

Tests used:
[1] = cited from earlier work
[2] = octanol/water; cited from earlier work
[3] = stability under ethylene oxide sterilization, heating and aging; reaction with paclitaxel; details: for reaction with paclitaxel: ethylene oxide sterilization, heating, aging
[4] = drug absorption by tissue after brief balloon deployment; type: in vivo; details: formulated with paclitaxel; 0.2-2 minutes of deployment
From the text: Some of the surfactants described herein are very stable under heating. They survive an ethylene oxide sterilization process.
When the chemical compounds described herein are formulated with paclitaxel, a top coat layer may be advantageous in order to prevent premature drug loss during the device delivery process before deployment at the target site, since hydrophilic small molecules sometimes release drug too easily. The chemical compounds herein rapidly elute drug off the balloon during deployment at the target site.
Mixtures or combinations of a surfactant and a water-soluble small molecule confer the advantages of both additives. The water insoluble drug often has a poor compatibility with highly water-soluble chemical compounds, and the surfactant improves compatibility. […] The surfactant reduces drug loss during transit to a target site. The water-soluble chemical compound improves the release of drug off the balloon and absorption of the drug in the tissue.

[5] = test system: protein; details: cited from earlier work
[6] = biological target: albumin (Homo sapiens, UniProt P02768); details: share of protein binding; cited from earlier work
Chain of albumin (P02768 25-609): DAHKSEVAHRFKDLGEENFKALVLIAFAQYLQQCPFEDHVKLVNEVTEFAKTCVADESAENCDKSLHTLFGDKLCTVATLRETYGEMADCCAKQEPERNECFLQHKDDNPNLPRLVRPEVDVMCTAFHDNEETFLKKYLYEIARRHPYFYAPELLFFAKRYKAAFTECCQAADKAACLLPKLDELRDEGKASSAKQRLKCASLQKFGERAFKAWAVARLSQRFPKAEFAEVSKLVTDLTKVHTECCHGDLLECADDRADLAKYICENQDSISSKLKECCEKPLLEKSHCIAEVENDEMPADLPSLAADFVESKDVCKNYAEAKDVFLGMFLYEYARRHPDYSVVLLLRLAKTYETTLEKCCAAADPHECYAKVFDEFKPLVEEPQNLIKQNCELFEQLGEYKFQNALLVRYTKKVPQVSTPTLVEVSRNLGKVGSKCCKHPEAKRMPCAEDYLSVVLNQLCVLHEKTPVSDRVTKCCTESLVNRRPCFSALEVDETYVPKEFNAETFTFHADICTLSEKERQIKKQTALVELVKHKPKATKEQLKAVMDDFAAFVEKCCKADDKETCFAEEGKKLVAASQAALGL

CC(=O)O[C@H]1C(=O)[C@@]2(C)[C@H]([C@H](OC(=O)c3ccccc3)[C@]3(O)C[C@H](OC(=O)[C@H](O)[C@@H](NC(=O)c4ccccc4)c4ccccc4)C(C)=C1C3(C)C)[C@]1(OC(C)=O)CO[C@@H]1C[C@@H]2O [paclitaxel, reference compound]
increase of solubility in PBS with the addition of BSA ([1]; PBS, BSA added): over 20 fold

COc1ccc(O)c(C(C)(C)C)c1 [Butylated hydroxyanisole (BHA), Butylated hydroxyanisole]
log P [2]: 1.31

OCCNCCO [diethanolamine]
survival of ethylene oxide sterilization process [3]: do not necessarily survive | reaction with paclitaxel [3]: reacted with paclitaxel

O=C(O)/C=C\C(=O)O [maleic acids]
water and ethanol solubility ([1]; in words): very high

PEG-20 sorbitan monolaurate [Tween 20]
log P [2]: about 3.0

Sudan Red
solubility in aqueous solvent ([1]; in words): insoluble

O=C1O[C@H](CO)[C@@H](O)[C@H](O)[C@H]1O [gluconolactone]
drug absorption by tissue / drug levels in tissue [4]: unexpectedly high

CO[C@H]1C[C@@H]2CC[C@@H](C)[C@@](O)(O2)C(=O)C(=O)N2CCCC[C@H]2C(=O)O[C@H]([C@H](C)C[C@@H]2CC[C@@H](O)[C@H](OC)C2)CC(=O)[C@H](C)/C=C(\C)[C@@H](O)[C@@H](OC)C(=O)[C@H](C)C[C@H](C)/C=C/C=C/C=C/1C [rapamycin]
protein bound [5]: 92% | protein bound primarily to albumin [6]: 97%

Cc1ncc(C[n+]2csc(CCO)c2C)c(N)n1 [thiamine]
water and ethanol solubility ([1]; in words): very high

O=C(O)c1ccccc1 [benzoic acid]
reaction with paclitaxel [3]: reacted with paclitaxel | stability under ethylene oxide sterilization, heating, and aging process ([3]; experimentally): not stable

O=C1O[C@H](CO)[C@@H](O)[C@H]1O [ribonic acid lactone]
drug absorption by tissue / drug levels in tissue [4]: unexpectedly high

NC(=O)c1cccnc1 [niacinamide]
water and ethanol solubility ([1]; in words): very high

O=C1O[C@H]([C@@H](O)CO)C(O)=C1O [ascorbic acid]
reaction with paclitaxel [3]: reacted with paclitaxel
